Data published in US20240158370A1, “CK1 alpha AND DUAL CK1 alpha / GSPT1 DEGRADING COMPOUNDS” (Innovo Therapeutics, Inc., priority 2022, published 2024).

Columns and labels:
Assay type in all cases: cell-based
[1] = tested on: Z-138 cells; experiment: Z-138 Proliferation Assay (Cell Titer-Glo); settings: 72 hours; for Ymin (%): % remaining (percent of DMSO control); for EC50: Homo sapiens, Cell Titer-Glo, 4-parameter curve fit
Outline: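 Z-138 cells (4,000 cells/well, IMDM + 10% FBS) exposed 72 h to 10-point 1:2 compound dilutions from 10,000 nM top, 0.1% DMSO. Viability read by CellTiter-Glo luminescence; EC50 from 4-parameter fit of percent of DMSO control.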

[2] = biological target: T1, CK1α (Homo sapiens, UniProt P48729+Q96SW2); experiment: HiBiT degradation assay, CK1α, Procedure A; settings: six hours
T1 construct: CSNK1A1-HiBit KI HEK293(LgBit) Cells; host or cells: HEK293(LgBit) knock-in cells
T1 sequence (P48729 whole entry): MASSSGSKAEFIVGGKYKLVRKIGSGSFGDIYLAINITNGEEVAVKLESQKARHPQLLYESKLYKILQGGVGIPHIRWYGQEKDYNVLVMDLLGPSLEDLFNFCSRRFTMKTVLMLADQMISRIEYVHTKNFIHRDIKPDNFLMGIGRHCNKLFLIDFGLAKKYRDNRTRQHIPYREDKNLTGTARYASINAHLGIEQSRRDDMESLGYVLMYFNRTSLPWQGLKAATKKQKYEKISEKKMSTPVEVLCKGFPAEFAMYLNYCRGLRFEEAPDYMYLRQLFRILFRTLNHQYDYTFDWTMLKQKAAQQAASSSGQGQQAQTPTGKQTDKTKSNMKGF
T1 sequence (Q96SW2 whole entry): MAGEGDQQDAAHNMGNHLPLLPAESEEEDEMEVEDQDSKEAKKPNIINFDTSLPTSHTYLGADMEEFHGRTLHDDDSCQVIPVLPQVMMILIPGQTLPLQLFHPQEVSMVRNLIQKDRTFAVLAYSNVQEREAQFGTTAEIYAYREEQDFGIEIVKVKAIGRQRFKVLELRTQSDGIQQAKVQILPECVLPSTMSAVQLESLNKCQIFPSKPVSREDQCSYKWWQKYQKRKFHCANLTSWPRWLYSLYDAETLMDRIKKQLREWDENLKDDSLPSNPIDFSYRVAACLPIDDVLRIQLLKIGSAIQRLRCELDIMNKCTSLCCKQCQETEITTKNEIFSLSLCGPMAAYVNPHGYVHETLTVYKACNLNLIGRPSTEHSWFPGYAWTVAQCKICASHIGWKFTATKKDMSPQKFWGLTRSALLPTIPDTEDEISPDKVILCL
T1 sequence (Q16531 whole entry partner): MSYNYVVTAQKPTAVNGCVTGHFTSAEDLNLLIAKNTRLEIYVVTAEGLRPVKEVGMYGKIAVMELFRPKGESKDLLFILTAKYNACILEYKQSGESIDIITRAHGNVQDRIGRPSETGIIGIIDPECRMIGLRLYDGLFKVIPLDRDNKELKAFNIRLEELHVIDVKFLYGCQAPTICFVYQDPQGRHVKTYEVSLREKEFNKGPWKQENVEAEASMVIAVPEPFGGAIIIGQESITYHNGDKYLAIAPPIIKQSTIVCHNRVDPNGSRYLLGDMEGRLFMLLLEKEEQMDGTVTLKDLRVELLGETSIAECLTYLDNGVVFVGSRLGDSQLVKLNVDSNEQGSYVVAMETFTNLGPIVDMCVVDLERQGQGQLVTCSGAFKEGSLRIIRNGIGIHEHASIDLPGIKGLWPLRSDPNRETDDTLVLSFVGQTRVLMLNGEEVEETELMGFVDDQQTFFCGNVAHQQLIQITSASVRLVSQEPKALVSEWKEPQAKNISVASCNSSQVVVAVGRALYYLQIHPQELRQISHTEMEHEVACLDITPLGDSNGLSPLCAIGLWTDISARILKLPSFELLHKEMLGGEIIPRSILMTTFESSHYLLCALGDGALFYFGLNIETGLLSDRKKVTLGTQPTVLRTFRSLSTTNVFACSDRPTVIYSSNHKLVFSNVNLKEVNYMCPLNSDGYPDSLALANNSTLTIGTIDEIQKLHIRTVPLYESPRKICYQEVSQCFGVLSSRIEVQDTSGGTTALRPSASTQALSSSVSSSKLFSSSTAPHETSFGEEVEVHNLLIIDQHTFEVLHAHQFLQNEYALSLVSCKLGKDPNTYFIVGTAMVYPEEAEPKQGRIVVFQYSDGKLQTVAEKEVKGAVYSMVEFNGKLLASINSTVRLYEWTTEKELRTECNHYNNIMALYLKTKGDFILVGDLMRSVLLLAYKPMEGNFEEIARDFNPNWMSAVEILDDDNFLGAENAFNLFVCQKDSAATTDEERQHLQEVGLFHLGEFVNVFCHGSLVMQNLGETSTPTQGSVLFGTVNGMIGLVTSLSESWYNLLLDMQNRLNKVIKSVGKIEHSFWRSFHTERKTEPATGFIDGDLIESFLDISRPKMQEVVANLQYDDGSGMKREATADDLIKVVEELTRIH
Outline: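 Luminescence from HiBiT lytic detection, read after 20 min shaking, gave DC50 and Ymin by 4-parameter fit. Before that, cells (1×10^6 cells/ml, DMEM+10% FBS) sat 6 h at 37° C on 10-point compound series (10 μM–0.005 μM, 0.1% DMSO).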

[3] = biological target: GSPT1 (Homo sapiens, UniProt P15170+Q96SW2); experiment: HiBiT degradation assay, GSPT1, Procedure B (Molt 4_hGSPT1_HiBIT cells); set-up: Molt 4_hGSPT1_HiBIT N-terminus tagged cells were generated using CRISPR technology; endogenous in cells; host or cells: Molt 4 cells, CRISPR-edited; settings: six hours
Chain of GSPT1 (P15170 whole entry): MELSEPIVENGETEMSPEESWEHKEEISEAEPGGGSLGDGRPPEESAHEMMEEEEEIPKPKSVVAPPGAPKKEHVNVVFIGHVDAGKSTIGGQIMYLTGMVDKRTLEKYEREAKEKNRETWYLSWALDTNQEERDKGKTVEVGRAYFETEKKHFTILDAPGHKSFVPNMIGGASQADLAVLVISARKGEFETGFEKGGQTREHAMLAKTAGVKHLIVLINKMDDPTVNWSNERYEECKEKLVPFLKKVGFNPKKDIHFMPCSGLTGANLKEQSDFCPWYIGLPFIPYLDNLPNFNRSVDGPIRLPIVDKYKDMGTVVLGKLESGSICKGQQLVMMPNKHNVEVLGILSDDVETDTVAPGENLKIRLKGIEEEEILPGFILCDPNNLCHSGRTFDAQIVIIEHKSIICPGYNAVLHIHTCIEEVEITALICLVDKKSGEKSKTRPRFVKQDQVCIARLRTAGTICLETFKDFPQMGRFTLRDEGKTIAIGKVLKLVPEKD
Chain of GSPT1 (Q96SW2 whole entry): as the sequence (Q96SW2 whole entry) above
Chain of GSPT1 (Q16531 whole entry partner): as the sequence (Q16531 whole entry partner) above
Outline: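 CRISPR N-terminal HiBiT-tagged Molt 4 cells at 1×10^6 cells/ml were treated 6 h at 37° C with compounds (10-point, 10 μM to 0.005 μM, 0.1% DMSO). Remaining HiBiT-GSPT1 was read by lytic luminescence; DC50 and Ymin (% remaining) from a 4-parameter fit.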

CK1α Ymin [2] | DC50 [2] | DC50 [3] | GSPT1 Ymin [3] | SMILES | Ymin (%) [1] | EC50 [1]
C (C = 0-10% remaining) | < 0.025 µM | ≥ 0.025 µM | F (F = >75-100% remaining) | CC(C)c1nc(-c2ccc3c(c2)CN(C2CCC(=O)NC2=O)C3=O)c(-c2ccccc2)n1C (stereo not drawn) [Example 726, 3-(5-(2-isopropyl-1-methyl-5-phenyl-1H-imidazol-4-yl)-1-oxoisoindolin-2-yl)piperidine-2,6-dione] | D (0-10% remaining) | < 0.01 µM
C (C = 0-10% remaining) | < 0.025 µM | < 0.025 µM | F (F = >75-100% remaining) | O=C1CCC(N2Cc3cc(-c4cc(-c5ccccc5)n(CC(F)(F)F)n4)ccc3C2=O)C(=O)N1 (stereo not drawn) [Example 710, 3-(1-oxo-5-(5-phenyl-1-(2,2,2-trifluoroethyl)-1H-pyrazol-3-yl)isoindolin-2-yl)piperidine-2,6-dione] | E (>10-25% remaining) | < 0.01 µM
D (D = >10- 25% remaining) | < 0.025 µM | ≥ 0.025 µM | E (E = >25-75% remaining) | Cn1nc(-c2ccc3c(c2)CN(C2CCC(=O)NC2=O)C3=O)nc1-c1ccc(Cl)cc1 (stereo not drawn) [Example 622, 3-(5-(5-(4-chlorophenyl)-1-methyl-1H-1,2,4-triazol-3-yl)-1-oxoisoindolin-2-yl)piperidine-2,6-dione] | E (>10-25% remaining) | 0.01 to 0.1 µM
D (D = >10- 25% remaining) | < 0.025 µM | ≥ 0.025 µM | F (F = >75-100% remaining) | Cn1nc(-c2ccc3c(c2)CN(C2CCC(=O)NC2=O)C3=O)cc1-c1ccc(Cl)cc1 (stereo not drawn) [Example 717, 3-(5-(5-(4-chlorophenyl)-1-methyl-1H-pyrazol-3-yl)-1-oxoisoindolin-2-yl)piperidine-2,6-dione] | E (>10-25% remaining) | 0.01 to 0.1 µM
C (C = 0-10% remaining) | < 0.025 µM | ≥ 0.025 µM | F (F = >75-100% remaining) | CC(C)c1nc(-c2ccc3c(c2)CN(C2CCC(=O)NC2=O)C3=O)c(-c2ccccc2)o1 (stereo not drawn) [Example 733, 3-(5-(2-isopropyl-5-phenyloxazol-4-yl)-1-oxoisoindolin-2-yl)piperidine-2,6-dione] | D (0-10% remaining) | < 0.01 µM
C (C = 0-10% remaining) | < 0.025 µM | < 0.025 µM | E (E = >25-75% remaining) | Cc1cn(-c2ccccc2)c(-c2ccc3c(c2)CN(C2CCC(=O)NC2=O)C3=O)n1 (stereo not drawn) [Example 729, 3-(5-(4-methyl-1-phenyl-1H-imidazol-2-yl)-1-oxoisoindolin-2-yl)piperidine-2,6-dione] | D (0-10% remaining) | < 0.01 µM
C (C = 0-10% remaining) | < 0.025 µM | < 0.025 µM | F (F = >75-100% remaining) | CC(C)Cc1nc(-c2ccc3c(c2)CN(C2CCC(=O)NC2=O)C3=O)c(-c2ccccc2)o1 (stereo not drawn) [Example 732, 3-(5-(2-isobutyl-5-phenyloxazol-4-yl)-1-oxoisoindolin-2-yl)piperidine-2,6-dione] | D (0-10% remaining) | < 0.01 µM

The remaining lines, values behind:

SMILES | CK1α Ymin [2] | DC50 [2] | DC50 [3] | GSPT1 Ymin [3] | Ymin (%) [1] | EC50 [1]
CC(C)c1cn(-c2ccccc2)c(-c2ccc3c(c2)CN(C2CCC(=O)NC2=O)C3=O)n1 (stereo not drawn) [Example 731, 3-(5-(4-isopropyl-1-phenyl-1H-imidazol-2-yl)-1-oxoisoindolin-2-yl)piperidine-2,6-dione] | C (C = 0-10% remaining) | < 0.025 µM | < 0.025 µM | E (E = >25-75% remaining) | D (0-10% remaining) | < 0.01 µM
Cn1ncc(-c2ccc3c(c2)CN(C2CCC(=O)NC2=O)C3=O)c1C1CCCC1 (stereo not drawn) [Example 692] | E (E = >25-75% remaining) | ≥ 0.025 µM | ≥ 0.025 µM | F (F = >75-100% remaining) | E (>10-25% remaining) | 0.1 to 0.5 µM
O=C1CCC(N2Cc3cc(-c4cc(-c5ccccc5)n(C5CC5)n4)ccc3C2=O)C(=O)N1 (stereo not drawn) [Example 621, 3-(5-(1-cyclopropyl-5-phenyl-1H-pyrazol-3-yl)-1-oxoisoindolin-2-yl)piperidine-2,6-dione] | C (C = 0-10% remaining) | < 0.025 µM | ≥ 0.025 µM | F (F = >75-100% remaining) | D (0-10% remaining) | < 0.01 µM
CCc1cn(-c2ccccc2)c(-c2ccc3c(c2)CN(C2CCC(=O)NC2=O)C3=O)n1 (stereo not drawn) [Example 730, 3-(5-(4-ethyl-1-phenyl-1H-imidazol-2-yl)-1-oxoisoindolin-2-yl)piperidine-2,6-dione] | C (C = 0-10% remaining) | < 0.025 µM | < 0.025 µM | E (E = >25-75% remaining) | D (0-10% remaining) | < 0.01 µM
CC(C)c1nc(-c2ccc3c(c2)CN(C2CCC(=O)NC2=O)C3=O)cn1-c1ccccc1 (stereo not drawn) [Example 728, 3-(5-(2-isopropyl-1-phenyl-1H-imidazol-4-yl)-1-oxoisoindolin-2-yl)piperidine-2,6-dione] | C (C = 0-10% remaining) | < 0.025 µM | ≥ 0.025 µM | F (F = >75-100% remaining) | E (>10-25% remaining) | < 0.01 µM
